How the values were obtained:
[1] = system: brain (striatal) GABA, glutamine and glutamate levels; assay: Striatal tissue neurotransmitter contents after oral glutamine (HPLC-EC); type: in vivo, Sprague Dawley rats; conditions: Gln by gavage, striata 2.5 hrs after dosing, vs saline (FIG. 3)
Procedure: (§1) Male adult Sprague Dawley (SD) rats (˜250 g) (n=9) were reared under and exposed to a 12 hr light/dark cycle, and provided with food (16% protein) and water ad libitum. Gln (0.5 grams per kilogram (g/Kg) or 1.0 g/Kg, in saline) or saline were administered by gavage. Rats were sacrificed by decapitation 2.5 hours (h) later.
To measure GABA contents, brains were quickly dissected on a chilled dissection board. Striata were homogenized with HClO4 and neutralized with 0.1 M Borate buffer (1:10). Data were normalized by the wet weights of the samples.
(§2) GABA was measured by HPLC, using an ODS column and OPA-sulfite derivation with electrochemical detection. OPA-sulfite HPLC-EC derivation was used to measure GABA levels in both brain tissue and microdialysis samples. The samples were derivatized at 4° C. to allow usage of an auto-sampler (Alltech 580). The detector used was an ESA Coulochem® II 5100A with an ESA microdialysis cell.
(§3) Data are presented as mean+/−S.E.M. ANOVA or t-test was used to determine differences between groups (significance level, p<0.05).

[2] = Plasma glutamate and glutamine levels after oral glutamine; type: in vivo, Sprague Dawley rats; conditions: Gln by gavage, vs saline (FIG. 4)
Procedure: as §1, §3

[3] = system: GABA release in rat striatum; assay: Microdialysis of spontaneous and NMDA-evoked GABA release in rat striatum; type: in vivo, rats; conditions: striatal microdialysis, mean±S.E.M.
Procedure: as §2, §3
Microdialysis was carried out in freely moving rats. Rats were anesthetized, and CMA/11 guide cannulas were permanently implanted into right striatum (AP=+0.5, ML=−3.0 from Bregma, DV=−3.3 mm from Dura) 1 week prior to microdialysis sampling. Dialysis collection was performed using a CMA/11 probe (4 mm), perfused with artificial cerebrospinal fluid (aCSF) at […] and collected at 20 min intervals.
GABAergic neurons were stimulated by NMDA (500 μM) in aCSF, 1 hr after Gln administration by gavage.

striatal Gln levels [1]: significantly increased
plasma Gln levels [2]: increased
SMILES: NC(=O)CC[C@H](N)C(=O)O [Gln, glutamine]
striatal Glu levels [1]: slightly decreased
plasma Glu levels [2]: not
Maximal spontaneous GABA release ([3]; Gln by gavage, freely moving rats, saline 111±7%, p<0.05 (FIG. 6)): 141±12%
NMDA-evoked GABA release ([3]; NMDA 500 μM in aCSF 1 hr after Gln by gavage, saline 177±40% (FIG. 7)): 252±37%
